{"source": "ChEMBL document CHEMBL5661983", "about": "“The selective anaplastic lymphoma receptor tyrosine kinase inhibitor ASP3026 induces tumor regression and prolongs survival in non-small cell lung cancer model mice” (Mol Cancer Ther, 2014)", "key": {"[1]": {"target": "ALK tyrosine kinase receptor (Homo sapiens, UniProt Q9UM73, F1174L)", "sequence (Q9UM73 19-1620 F1174L limits assumed)": "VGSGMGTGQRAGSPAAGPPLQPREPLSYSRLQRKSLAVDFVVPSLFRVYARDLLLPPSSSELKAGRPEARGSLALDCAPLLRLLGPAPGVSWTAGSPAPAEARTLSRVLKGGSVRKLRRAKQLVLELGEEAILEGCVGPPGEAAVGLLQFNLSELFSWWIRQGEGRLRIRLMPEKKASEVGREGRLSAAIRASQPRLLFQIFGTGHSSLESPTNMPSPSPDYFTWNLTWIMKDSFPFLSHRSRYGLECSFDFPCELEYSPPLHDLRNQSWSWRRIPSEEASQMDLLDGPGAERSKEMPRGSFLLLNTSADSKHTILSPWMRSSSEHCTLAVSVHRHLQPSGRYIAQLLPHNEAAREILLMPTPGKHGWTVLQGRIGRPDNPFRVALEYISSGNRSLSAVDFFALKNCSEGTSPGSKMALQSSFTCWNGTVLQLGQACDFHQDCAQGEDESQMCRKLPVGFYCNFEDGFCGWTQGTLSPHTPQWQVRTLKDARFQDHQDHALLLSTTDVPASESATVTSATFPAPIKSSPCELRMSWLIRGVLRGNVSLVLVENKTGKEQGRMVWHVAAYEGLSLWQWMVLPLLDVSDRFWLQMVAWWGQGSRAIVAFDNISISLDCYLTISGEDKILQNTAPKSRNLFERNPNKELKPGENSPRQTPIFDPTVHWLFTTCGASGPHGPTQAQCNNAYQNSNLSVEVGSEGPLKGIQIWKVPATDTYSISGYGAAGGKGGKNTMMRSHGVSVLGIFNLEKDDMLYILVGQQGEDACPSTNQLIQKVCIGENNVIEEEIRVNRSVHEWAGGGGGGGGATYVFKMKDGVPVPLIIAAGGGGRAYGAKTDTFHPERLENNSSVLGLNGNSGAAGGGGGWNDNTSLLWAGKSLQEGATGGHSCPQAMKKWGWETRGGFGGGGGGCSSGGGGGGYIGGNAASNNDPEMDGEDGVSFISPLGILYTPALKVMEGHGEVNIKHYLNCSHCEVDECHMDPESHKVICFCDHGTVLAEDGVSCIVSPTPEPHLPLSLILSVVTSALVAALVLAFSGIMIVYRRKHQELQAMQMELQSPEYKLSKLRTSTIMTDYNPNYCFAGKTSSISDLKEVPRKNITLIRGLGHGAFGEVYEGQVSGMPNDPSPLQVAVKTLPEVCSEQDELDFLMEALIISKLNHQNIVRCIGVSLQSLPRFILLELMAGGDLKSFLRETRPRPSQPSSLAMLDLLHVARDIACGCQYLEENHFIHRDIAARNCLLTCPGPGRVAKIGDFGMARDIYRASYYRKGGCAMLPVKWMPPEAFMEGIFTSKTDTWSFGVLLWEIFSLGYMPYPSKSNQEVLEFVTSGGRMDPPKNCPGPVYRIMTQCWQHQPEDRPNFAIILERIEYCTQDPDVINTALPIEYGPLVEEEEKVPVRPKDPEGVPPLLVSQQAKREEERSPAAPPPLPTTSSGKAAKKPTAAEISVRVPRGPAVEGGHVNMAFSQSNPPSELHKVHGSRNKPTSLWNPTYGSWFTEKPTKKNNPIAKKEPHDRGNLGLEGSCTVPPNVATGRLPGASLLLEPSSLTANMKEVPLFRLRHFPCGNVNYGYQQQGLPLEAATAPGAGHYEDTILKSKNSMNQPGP"}, "[2]": {"target": "T1, ALK tyrosine kinase receptor (Homo sapiens, UniProt Q9UM73)", "experiment": "Inhibition of ALK in human NCI-H2228 cells assessed as reduction in STAT3 phosphorylation by measuring phosphorylated STAT3 level at 100 nmol/L measured after 4 hrs by Western blot analysis relative to control", "assay_type": "cell-based", "design": "scale not given: the % may be the effect or the level left"}, "[3]": {"target": "BDNF/NT-3 growth factors receptor (Homo sapiens, UniProt Q16620)"}, "[4]": {"target": "T1, ALK tyrosine kinase receptor", "experiment": "Inhibition of ALK in human NCI-H2228 cells assessed as reduction in AKT phosphorylation by measuring phosphorylated AKT level at 10 nmol/L measured after 4 hrs by Western blot analysis relative to control", "assay_type": "cell-based", "design": "scale not given: the % may be the effect or the level left"}, "[5]": {"experiment": "Cmax in human NCI-H2228 cell xenografted NOD.CB17-Prkdcscid/J mouse tumor at 3 mg/kg/day for 5 days by HPLC-MS analysis", "assay_type": "ADME, organism-based, Neoplasm", "details": "route po, time 5 day"}, "[6]": {"experiment": "Selectivity ratio of IC50 for EML4-ALK L1196M mutant (unknown origin) transformed in mouse BaF3 cells to IC50 for EML4-ALK (unknown origin) transformed in mouse BaF3 cells", "design": "species or system Homo sapiens", "details": "condition non-small cell lung carcinoma"}, "[7]": {"experiment": "Toxicity in human NCI-H2228 cell xenografted NOD.CB17-Prkdcscid/J mouse assessed as change in body weight at 100 mg/kg, po administered twice daily for 14 days", "assay_type": "organism-based", "details": "in vivo, 336 h, time 14 day"}, "NCI-H2228-Luc [8]": {"system": "NCI-H2228-Luc", "experiment": "Antitumor activity against human NCI-H2228-Luc cells intrahepatically xenografted in NOD.CB17-Prkdcscid/J mouse assessed as reduction in tumor burden by measuring bioluminescence emission at 30 mg/kg, po administered once daily for 3 weeks starting from 14 days post-cell inoculation and measured on day 19 by bioluminescent imaging analysis (reference value: 3.3 x 10^8 photon/sec)", "assay_type": "functional", "details": "time 19 day"}, "[9]": {"experiment": "Tmax in human NCI-H2228 cell xenografted NOD.CB17-Prkdcscid/J mouse tumor at 3 mg/kg/day for 5 days by HPLC-MS analysis", "assay_type": "ADME, organism-based, Neoplasm", "details": "route po, time 5 day"}, "[10]": {"experiment": "Cmax in human NCI-H2228 cell xenografted NOD.CB17-Prkdcscid/J mouse plasma at 3 mg/kg/day for 5 days by HPLC-MS analysis", "assay_type": "ADME, organism-based", "details": "route po, time 5 day"}, "NCI-H2228 [11]": {"system": "NCI-H2228", "experiment": "Antitumor activity against human NCI-H2228 cells xenografted in NOD.CB17-Prkdcscid/J mouse assessed as tumor growth inhibition at 1 mg/kg, po administered once daily for 2 weeks relative to control", "assay_type": "functional", "details": "NCI-H2228, 336 h, read-out: TGI"}, "in vivo [12]": {"experiment": "in vivo", "details": "NOD.CB17-Prkdcscid/J, mouse, tumour, po, 10 mg/kg"}, "[13]": {"experiment": "AUC (0 to 24 hrs) in human NCI-H2228 cell xenografted NOD.CB17-Prkdcscid/J mouse tumor at 10 mg/kg/day for 5 days by HPLC-MS analysis", "assay_type": "ADME, organism-based, Neoplasm", "details": "in vivo, po, 120 h, time 5 day"}, "[14]": {"target": "Macrophage-stimulating protein receptor (Homo sapiens, UniProt Q04912)", "sequence (Q04912 25-304 limits assumed)": "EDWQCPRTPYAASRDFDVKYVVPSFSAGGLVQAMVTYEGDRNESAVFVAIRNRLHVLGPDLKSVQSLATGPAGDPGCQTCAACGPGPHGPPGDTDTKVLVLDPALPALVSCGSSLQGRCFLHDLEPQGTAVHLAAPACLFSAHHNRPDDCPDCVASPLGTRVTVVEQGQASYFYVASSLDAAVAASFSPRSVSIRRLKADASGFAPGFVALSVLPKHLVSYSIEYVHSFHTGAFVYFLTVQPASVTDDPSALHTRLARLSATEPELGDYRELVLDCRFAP", "sequence (Q04912 310-1400 limits assumed)": "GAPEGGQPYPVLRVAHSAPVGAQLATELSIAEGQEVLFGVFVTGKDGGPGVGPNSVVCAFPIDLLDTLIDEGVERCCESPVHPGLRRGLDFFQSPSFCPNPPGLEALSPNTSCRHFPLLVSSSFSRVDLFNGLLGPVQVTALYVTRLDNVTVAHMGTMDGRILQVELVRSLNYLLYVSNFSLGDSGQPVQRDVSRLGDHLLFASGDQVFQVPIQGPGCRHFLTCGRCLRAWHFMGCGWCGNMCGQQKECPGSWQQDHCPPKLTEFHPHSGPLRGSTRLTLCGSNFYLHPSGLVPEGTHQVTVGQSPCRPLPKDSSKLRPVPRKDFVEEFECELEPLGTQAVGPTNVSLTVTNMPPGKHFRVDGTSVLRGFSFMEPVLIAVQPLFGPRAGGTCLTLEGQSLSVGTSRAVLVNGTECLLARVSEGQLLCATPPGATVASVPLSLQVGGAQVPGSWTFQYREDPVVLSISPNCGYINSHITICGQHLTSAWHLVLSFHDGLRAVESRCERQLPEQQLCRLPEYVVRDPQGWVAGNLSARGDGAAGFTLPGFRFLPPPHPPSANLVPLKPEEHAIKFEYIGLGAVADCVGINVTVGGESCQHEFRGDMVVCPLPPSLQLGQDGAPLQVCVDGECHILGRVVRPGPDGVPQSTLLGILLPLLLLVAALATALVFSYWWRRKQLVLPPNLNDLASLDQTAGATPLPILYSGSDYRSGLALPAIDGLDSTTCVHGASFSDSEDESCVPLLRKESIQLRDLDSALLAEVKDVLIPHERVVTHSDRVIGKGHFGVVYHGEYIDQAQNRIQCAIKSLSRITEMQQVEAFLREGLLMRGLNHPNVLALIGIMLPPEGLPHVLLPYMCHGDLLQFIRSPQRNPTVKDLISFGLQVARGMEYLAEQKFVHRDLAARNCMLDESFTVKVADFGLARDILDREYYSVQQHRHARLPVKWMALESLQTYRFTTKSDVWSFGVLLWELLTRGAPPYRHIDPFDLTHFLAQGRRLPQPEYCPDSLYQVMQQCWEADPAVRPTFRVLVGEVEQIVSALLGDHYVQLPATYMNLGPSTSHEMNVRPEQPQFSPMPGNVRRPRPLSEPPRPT"}, "NCI-H2228-Luc [15]": {"system": "NCI-H2228-Luc", "experiment": "Antitumor activity against human NCI-H2228-Luc cells intrapleurally xenografted in NOD.CB17-Prkdcscid/J mouse assessed as median survival time at 3 mg/kg, po administered once daily for 7 weeks starting from 14 days post-cell inoculation measured up to 90 days (reference value: 39 day)", "assay_type": "functional", "details": "time 90 day"}, "[16]": {"target": "T1, ALK tyrosine kinase receptor", "experiment": "Inhibition of ALK in human NCI-H2228 cells assessed as reduction in ERK phosphorylation by measuring phosphorylated ERK level at 10 nmol/L measured after 4 hrs by Western blot analysis relative to control", "assay_type": "cell-based", "design": "scale not given: the % may be the effect or the level left"}, "[17]": {"target": "T1, ALK tyrosine kinase receptor", "experiment": "Inhibition of ALK phosphorylation in human NCI-H2228 cells assessed as phosphorylated ALK level at 10 nmol/L measured after 4 hrs by Western blot analysis relative to control", "assay_type": "cell-based", "design": "scale not given: the % may be the effect or the level left"}, "[18]": {"experiment": "Cmax in human NCI-H2228 cell xenografted NOD.CB17-Prkdcscid/J mouse tumor at 10 mg/kg/day for 5 days by HPLC-MS analysis", "assay_type": "ADME, organism-based, Neoplasm", "details": "route po, time 5 day"}, "NCI-H2228 [19]": {"system": "NCI-H2228", "experiment": "Antitumor activity against human NCI-H2228 cells xenografted in po dosed NOD.CB17-Prkdcscid/J mouse assessed as tumor growth inhibition administered once daily for 2 weeks", "assay_type": "functional, organism-based", "details": "dose 1-30 mg/kg"}, "[20]": {"experiment": "Ratio of Cmax in human NCI-H2228 cell xenografted NOD.CB17-Prkdcscid/J mouse tumor to plasma at 3 mg/kg/day for 5 days by HPLC-MS analysis", "assay_type": "ADME, organism-based", "details": "tumor and plasma, route po, time 5 day"}, "NCI-H2228 [21]": {"system": "NCI-H2228", "experiment": "Antitumor activity against human NCI-H2228 cells xenografted in NOD.CB17-Prkdcscid/J mouse assessed as tumor regression at 10 mg/kg, po administered once daily for 2 weeks relative to control", "assay_type": "functional"}, "[22]": {"target": "T1, ALK tyrosine kinase receptor"}, "NCI-H2228-Luc [23]": {"system": "NCI-H2228-Luc", "experiment": "Antitumor activity against human NCI-H2228-Luc cells intrapleurally xenografted in NOD.CB17-Prkdcscid/J mouse assessed as median survival time at 10 mg/kg, po administered once daily for 7 weeks starting from 14 days post-cell inoculation measured up to 90 days (reference value: 39 day)", "assay_type": "functional", "details": "time 90 day"}, "[24]": {"target": "Tyrosine-protein kinase JAK2 (Homo sapiens, UniProt O60674)"}, "in vivo [25]": {"experiment": "in vivo", "details": "NOD.CB17-Prkdcscid/J, mouse, tumour, po, 3 mg/kg"}, "Ephrin type-B receptor 4": {"target": "Ephrin type-B receptor 4 (Homo sapiens, UniProt P54760)", "sequence (P54760 whole entry)": "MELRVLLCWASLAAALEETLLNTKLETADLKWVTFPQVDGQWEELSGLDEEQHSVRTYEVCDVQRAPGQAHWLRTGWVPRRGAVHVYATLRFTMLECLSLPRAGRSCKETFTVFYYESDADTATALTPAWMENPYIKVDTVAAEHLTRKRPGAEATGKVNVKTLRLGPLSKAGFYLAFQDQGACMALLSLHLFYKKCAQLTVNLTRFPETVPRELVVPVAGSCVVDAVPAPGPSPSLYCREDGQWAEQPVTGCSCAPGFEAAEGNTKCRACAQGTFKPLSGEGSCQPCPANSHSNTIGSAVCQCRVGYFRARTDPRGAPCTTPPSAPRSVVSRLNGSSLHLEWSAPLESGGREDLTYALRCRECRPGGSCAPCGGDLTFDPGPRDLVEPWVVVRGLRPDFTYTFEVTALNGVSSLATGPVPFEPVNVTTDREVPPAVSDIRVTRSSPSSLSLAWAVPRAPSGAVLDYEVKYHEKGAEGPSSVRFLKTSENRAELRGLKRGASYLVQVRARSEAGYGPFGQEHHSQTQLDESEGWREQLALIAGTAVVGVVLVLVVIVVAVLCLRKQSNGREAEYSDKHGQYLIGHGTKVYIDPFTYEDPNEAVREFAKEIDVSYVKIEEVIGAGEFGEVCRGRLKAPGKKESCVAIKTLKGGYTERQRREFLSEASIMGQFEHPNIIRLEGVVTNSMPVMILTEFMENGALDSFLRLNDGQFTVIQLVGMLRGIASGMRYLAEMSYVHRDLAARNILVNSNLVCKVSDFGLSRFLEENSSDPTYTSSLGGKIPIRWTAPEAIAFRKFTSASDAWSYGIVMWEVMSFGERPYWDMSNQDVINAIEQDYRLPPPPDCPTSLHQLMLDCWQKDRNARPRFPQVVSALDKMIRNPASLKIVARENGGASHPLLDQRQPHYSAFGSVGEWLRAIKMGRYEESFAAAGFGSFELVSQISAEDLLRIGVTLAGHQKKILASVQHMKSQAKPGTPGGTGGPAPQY"}, "[26]": {"experiment": "AUC (0 to 24 hrs) in human NCI-H2228 cell xenografted NOD.CB17-Prkdcscid/J mouse plasma at 1 mg/kg/day for 5 days by HPLC-MS analysis", "assay_type": "ADME, organism-based", "details": "route po, time 5 day"}, "[27]": {"target": "T1, ALK tyrosine kinase receptor", "experiment": "Inhibition of ALK in human NCI-H2228 cells assessed as reduction in STAT3 phosphorylation by measuring phosphorylated STAT3 level at 10 nmol/L measured after 4 hrs by Western blot analysis relative to control", "assay_type": "cell-based", "design": "scale not given: the % may be the effect or the level left"}, "[28]": {"experiment": "Tmax in human NCI-H2228 cell xenografted NOD.CB17-Prkdcscid/J mouse plasma at 3 mg/kg/day for 5 days by HPLC-MS analysis", "assay_type": "ADME, organism-based", "details": "route po, time 5 day"}, "NCI-H2228 [29]": {"system": "NCI-H2228", "experiment": "Antitumor activity against human NCI-H2228 cells xenografted in NOD.CB17-Prkdcscid/J mouse assessed as tumor growth inhibition at 3 mg/kg, po administered once daily for 2 weeks relative to control", "assay_type": "functional", "details": "NCI-H2228, 336 h, read-out: TGI"}, "Activated CDC42 kinase 1": {"target": "Activated CDC42 kinase 1 (Homo sapiens, UniProt Q07912)", "sequence (Q07912 whole entry)": "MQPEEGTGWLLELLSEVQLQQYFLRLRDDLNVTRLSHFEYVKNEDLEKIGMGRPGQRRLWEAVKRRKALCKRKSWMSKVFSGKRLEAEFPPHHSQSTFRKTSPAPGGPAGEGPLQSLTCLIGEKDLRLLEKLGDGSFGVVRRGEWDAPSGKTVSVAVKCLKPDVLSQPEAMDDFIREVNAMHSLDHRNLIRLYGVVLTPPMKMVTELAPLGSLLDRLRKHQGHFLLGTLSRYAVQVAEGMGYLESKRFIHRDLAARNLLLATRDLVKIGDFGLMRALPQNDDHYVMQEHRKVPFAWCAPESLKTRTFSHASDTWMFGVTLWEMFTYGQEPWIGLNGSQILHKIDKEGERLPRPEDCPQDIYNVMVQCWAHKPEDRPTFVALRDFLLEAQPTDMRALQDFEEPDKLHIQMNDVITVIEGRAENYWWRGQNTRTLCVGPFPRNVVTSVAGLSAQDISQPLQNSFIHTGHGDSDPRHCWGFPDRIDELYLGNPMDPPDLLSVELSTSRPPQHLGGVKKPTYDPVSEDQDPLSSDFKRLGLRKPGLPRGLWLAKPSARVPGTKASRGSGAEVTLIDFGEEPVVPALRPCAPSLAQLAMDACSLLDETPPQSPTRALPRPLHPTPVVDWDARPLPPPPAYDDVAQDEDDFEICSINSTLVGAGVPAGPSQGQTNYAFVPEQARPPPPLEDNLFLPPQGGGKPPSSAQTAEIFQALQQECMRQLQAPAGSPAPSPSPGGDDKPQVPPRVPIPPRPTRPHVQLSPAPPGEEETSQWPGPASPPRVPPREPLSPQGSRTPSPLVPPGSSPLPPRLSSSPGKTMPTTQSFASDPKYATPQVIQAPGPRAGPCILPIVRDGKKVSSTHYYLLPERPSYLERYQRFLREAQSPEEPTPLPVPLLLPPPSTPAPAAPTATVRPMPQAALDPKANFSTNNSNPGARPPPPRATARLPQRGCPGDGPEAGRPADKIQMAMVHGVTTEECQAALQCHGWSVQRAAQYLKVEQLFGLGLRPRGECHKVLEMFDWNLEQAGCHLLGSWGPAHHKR"}, "NCI-H2228 [30]": {"system": "NCI-H2228", "experiment": "Antitumor activity against human NCI-H2228 cells xenografted in NOD.CB17-Prkdcscid/J mouse assessed as tumor regression at 3 mg/kg, po administered once daily for 2 weeks relative to control", "assay_type": "functional"}, "[31]": {"target": "T1, ALK tyrosine kinase receptor", "experiment": "Inhibition of ALK in human NCI-H2228 cells assessed as reduction in ERK phosphorylation by measuring phosphorylated ERK level at 1000 nmol/L measured after 4 hrs by Western blot analysis relative to control", "assay_type": "cell-based", "design": "scale not given: the % may be the effect or the level left"}}, "data": [{"compound": "COc1cc(N2CCC(N3CCN(C)CC3)CC2)ccc1Nc1ncnc(Nc2ccccc2S(=O)(=O)C(C)C)n1", "note": "[ASP-3026]", "values": [{"measurement": "IC50", "setting": "[1]", "value": 10, "unit": "nM"}, {"measurement": "Activity", "setting": "[2]", "value": 52, "unit": "%"}, {"measurement": "IC50", "setting": "[3]", "value": "> 1000", "unit": "nM"}, {"measurement": "Activity", "setting": "[4]", "value": 120, "unit": "%"}, {"measurement": "Cmax", "setting": "[5]", "value": 2270, "unit": "ng/g"}, {"measurement": "Ratio IC50", "setting": "[6]", "value": 3.2}, {"measurement": "Activity", "setting": "[7]", "value": "Non-Toxic"}, {"measurement": "Activity", "setting": "NCI-H2228-Luc [8]", "value": "7.7 10^6No_unit"}, {"measurement": "Tmax", "setting": "[9]", "value": 4, "unit": "h"}, {"measurement": "Cmax", "setting": "[10]", "value": 140, "unit": "ng/mL"}, {"measurement": "inhibition in vivo at 1 mg/kg", "setting": "NCI-H2228 [11]", "value": 69, "unit": "%"}, {"measurement": "Kp at 120 h", "setting": "in vivo [12]", "value": 20}, {"measurement": "AUC", "setting": "[13]", "value": 121000, "unit": "ng·h/g"}, {"measurement": "IC50", "setting": "[14]", "value": "> 1000", "unit": "nM"}, {"measurement": "MST", "setting": "NCI-H2228-Luc [15]", "value": 56.5, "unit": "days"}, {"measurement": "Activity", "setting": "[16]", "value": 101, "unit": "%"}, {"measurement": "Activity", "setting": "[17]", "value": 70, "unit": "%"}, {"measurement": "Cmax", "setting": "[18]", "value": 8990, "unit": "ng/g"}, {"measurement": "TGI", "setting": "NCI-H2228 [19]", "value": "Dose-Dependent Effect"}, {"measurement": "Kp at 120 h", "setting": "[20]", "value": 16}, {"measurement": "Activity", "setting": "NCI-H2228 [21]", "value": 45, "unit": "%"}, {"measurement": "IC50", "setting": "[22]", "value": 3.5, "unit": "nM"}, {"measurement": "MST", "setting": "NCI-H2228-Luc [23]", "value": 79, "unit": "days"}, {"measurement": "IC50", "setting": "[24]", "value": "> 1000", "unit": "nM"}, {"measurement": "Kp at 120 h", "setting": "in vivo [25]", "value": 19}, {"measurement": "IC50", "setting": "Ephrin type-B receptor 4", "value": "> 1000", "unit": "nM"}, {"measurement": "AUC at 120 h", "setting": "[26]", "value": 630, "unit": "ng·h/mL"}, {"measurement": "Activity", "setting": "[27]", "value": 88, "unit": "%"}, {"measurement": "Tmax", "setting": "[28]", "value": 4, "unit": "h"}, {"measurement": "inhibition in vivo at 3 mg/kg", "setting": "NCI-H2228 [29]", "value": "> 100", "unit": "%"}, {"measurement": "IC50", "setting": "Activated CDC42 kinase 1", "value": 5.8, "unit": "nM"}, {"measurement": "Activity", "setting": "NCI-H2228 [30]", "value": 4, "unit": "%"}, {"measurement": "Activity", "setting": "[31]", "value": 36, "unit": "%"}]}]}
